How the values were obtained:
glycerol dehydratase = assay: Butanediol dehydratase activity of glycerol dehydratase; format: biochemical, Klebsiella pneumoniae; details: 10 mM meso-2,3-butanediol, 12 μM coenzyme B12, pH 8.2, 37° C., crude cell free extract of KLP23/pSYCO12
Text: Glycerol dehydratase (E.C. 4.2.1.30) and diol dehydratase (E.C. 4.2.1.28), while structurally related, are often distinguished in the art based on various differences that include substrate specificity. […] The recombinant E. coli strain KLP23/pSYCO12, comprising Klebsiella pneumoniae genes encoding the multiple subunits of glycerol dehydratase (alpha: SEQ ID NO:145 (coding region) and 146 (protein); beta: SEQ ID NO: 147 (coding region) and 148 (protein); and gamma: SEQ ID NO: 149 (coding region) and 150 (protein)) and Klebsiella pneumoniae genes encoding the multiple subunits of glycerol dehydratase reactivase (large subunit, SEQ ID NO: 151 (coding region) and 152 (protein); and small subunit, SEQ ID NO: 153 (coding region) and 154 (protein)), is described in Emptage et al. U.S. Pat. No. 6,514,733 and in WO 2003089621, which are herein incorporated by reference. A crude, cell free extract of KLP23/pSYCO12 was prepared by methods known to one skilled in the art. […] The formation of 2-butanone was monitored by HPLC (Shodex SH-1011 column and SH-G guard column with refractive index detection; 0.01 M H2SO4 as the mobile phase at a flow rate of 0.5 mL/min and a column temperature of 50° C.; 2-butanone retention time=40.2 min). The rate of 2-butanone formation by the glycerol dehydratase preparation was determined to be 0.4 nmol/min/mg of crude protein.

[1] = tested on: Lactobacillus plantarum PN0512; assay: Growth of L. plantarum PN0512 in the presence of butanols at different temperatures (OD600); format: cell-based; parameters: key to Growth of L. plantarum PN0512 in the presence of 1-butanol / Growth of L. plantarum PN0512 in the presence of isobutanol / Growth of L. plantarum PN0512 in the presence of 2-butanol: +: growth observed as an increase in OD600.; −: no growth observed, i.e. no change in OD600
Procedure: Tolerance levels of bacterial strain Lactobacillus plantarum PN0512 (ATCC # PTA-7727) were determined at 25° C., 30° C. and 37° C. as follows. The strain was cultured in S30L medium (i.e., 10 mM ammonium sulfate, 5 mM potassium phosphate buffer, pH 7.0, 50 mM MOPS, pH 7.0, 2 mM MgCl2, 0.7 mM CaCl2, 50 μM MnCl2, 1 μM FeCl3, 1 μM ZnCl2, 1.72 μM CuCl2, 2.53 μM COCl2, 2.42 μM Na2MoO4, 2 μM thiamine hydrochloride, 10 mM glucose, and 0.2% yeast extract). An overnight culture in the absence of any test compound was started in 15 mL of the S30L medium in a 150 mL flask, with incubation at 37° C. in a shaking water bath. The next morning, the overnight culture was diluted into three 500 mL flasks containing 150 mL of fresh medium to an initial OD600 of about 0.08. Each flask was incubated in a shaking water bath, one each at 25° C., 30° C. and 37° C. Each large culture was allowed to acclimate at the test temperature for at least 0.5 h. […] Growth was followed by measuring OD600 for six hours after addition of the compounds.

[2] = tested on: Erwinia amino alcohol O-phosphate lyase; assay: Aminopropanol O-phosphate lyase assay (MBTH, OD670); format: biochemical, Erwinia carotovora subsp. atroseptica; details: 10 mM substrate, 37° C.
Procedure: The pBAD.KA-AT plasmid was transformed into the E. coli TOP10 strain. A 50 mL culture of TOP10/pBAD.KA-AT strain was grown to mid log phase (OD600=0.6) in LB, 100 μg/mL ampicillin media at 37° C. with shaking at 250 rpm. The culture was induced by addition of L-arabinose to a final concentration of 0.1% (w/v), and it was further incubated at 37° C. for 5 h before harvesting by centrifugation. The cell pellet was resuspended in ice cold 50 mM Tris-HCl, pH 8.0, and disrupted by sonication on ice with a Fischer Sonic Model 300 Dismembrator (Fischer, Pittsburgh, Pa.) at 50% power, repeating four cycles of 30 seconds sonication with 60 seconds rest in-between each cycle. Each sonicated sample was centrifuged (15,000×g, 4 min, 4° C.). Clarified cell free extracts were analyzed for protein expression level and amino alcohol O-phosphate lyase activity.
The aminopropanol O-phosphate lyase assay was performed as described by Jones et al. (1973, Biochem. J. 134:167-182) and G. Gori et al. (1995, Chromatographia 40:336) The formation of propionaldehyde from aminopropanol O-phosphate was assayed calorimetrically with MBTH, which allows the detection of aldehyde formation. The reaction was performed as follows. In a 1 mL reaction, 100 μg cell free extract of E. coli TOP10/pBAD.KA-AT was added to 10 mM DL-1-amino-2-propanol O-phosphate in 100 mM Tris-HCl, pH 7.8, with 0.1 mM PLP. The reaction was incubated at 37° C. for 10 min and 30 min, with an aliquot of 100 μL reaction mixture removed at each time point and mixed with 100 μL of 6 mg/mL MBTH in 375 mM glycine-HCl, pH 2.7. This mixture was incubated at 100° C. for 3 min, cooled on ice for 15-30 s, and 1 mL of 3.3 mg/mL FeCl3.6H2O (in 10 mM HCl) was added, followed by incubation for 30 min at room temperature. The absorbance of the reaction mixture which contains the aldehyde-MBTH adduct, was measured at 670 nm. In the presence of the aminopropanol phosphate substrate, PLP and cell free extract, formation of aldehyde was detected, as indicated by an Abs670 that was higher than the control background of up to 0.3. In the absence of either the substrate or the cell free extract, no aldehyde formation was detected. In the absence of added PLP, somewhat less amount aldehyde was detected, presumably due to the presence of PLP in the cell free extract.

[3] = Sample 2: induced cell free extract, PLP (+)
[4] = Sample 4: induced cell free extract, PLP (−)

CC(O)C(C)O (stereo not drawn) [meso-2,3-butanediol]
Rate of 2-butanone formation (glycerol dehydratase): 0.4 nmol/min/mg of crude protein

CCC(C)O (stereo not shown) [2-butanol]
Growth of L. plantarum PN0512 in the presence of 2-butanol ([1]; 1.8 % w/v, 37° C.): +
Growth of L. plantarum PN0512 in the presence of 2-butanol ([1]; 2.1 % w/v, 37° C.): +
Growth of L. plantarum PN0512 in the presence of 2-butanol ([1]; 2.9 % w/v, 25° C.): +
Growth of L. plantarum PN0512 in the presence of 2-butanol ([1]; 2.9 % w/v, 30° C.): +
Growth of L. plantarum PN0512 in the presence of 2-butanol ([1]; 2.9 % w/v, 37° C.): +
Growth of L. plantarum PN0512 in the presence of 2-butanol ([1]; 3.1 % w/v, 37° C.): +
Growth of L. plantarum PN0512 in the presence of 2-butanol ([1]; 3.6 % w/v, 37° C.): +
Growth of L. plantarum PN0512 in the presence of 2-butanol ([1]; 3.8 % w/v, 25° C.): +
Growth of L. plantarum PN0512 in the presence of 2-butanol ([1]; 3.8 % w/v, 30° C.): +
Growth of L. plantarum PN0512 in the presence of 2-butanol ([1]; 3.8 % w/v, 37° C.): +
Growth of L. plantarum PN0512 in the presence of 2-butanol ([1]; 4.0 % w/v, 30° C.): +
Growth of L. plantarum PN0512 in the presence of 2-butanol ([1]; 4.3 % w/v, 25° C.): +
Growth of L. plantarum PN0512 in the presence of 2-butanol ([1]; 4.3 % w/v, 30° C.): +
Growth of L. plantarum PN0512 in the presence of 2-butanol ([1]; 4.3 % w/v, 37° C.): +
Growth of L. plantarum PN0512 in the presence of 2-butanol ([1]; 4.7 % w/v, 25° C.): +
Growth of L. plantarum PN0512 in the presence of 2-butanol ([1]; 4.7 % w/v, 30° C.): +
Growth of L. plantarum PN0512 in the presence of 2-butanol ([1]; 4.7 % w/v, 37° C.): −
Growth of L. plantarum PN0512 in the presence of 2-butanol ([1]; 4.9 % w/v, 25° C.): +
Growth of L. plantarum PN0512 in the presence of 2-butanol ([1]; 4.9 % w/v, 30° C.): −
Growth of L. plantarum PN0512 in the presence of 2-butanol ([1]; 5.2 % w/v, 25° C.): +
Growth of L. plantarum PN0512 in the presence of 2-butanol ([1]; 5.2 % w/v, 37° C.): −
Growth of L. plantarum PN0512 in the presence of 2-butanol ([1]; 5.6 % w/v, 25° C.): −
Growth of L. plantarum PN0512 in the presence of 2-butanol ([1]; 5.6 % w/v, 37° C.): −
Growth of L. plantarum PN0512 in the presence of 2-butanol ([1]; 6.0 % w/v, 37° C.): −
Growth of L. plantarum PN0512 in the presence of 2-butanol ([1]; 6.4 % w/v, 37° C.): −
Growth of L. plantarum PN0512 in the presence of 2-butanol ([1]; 7.3 % w/v, 37° C.): −
Concentration in which growth was observed ([1]; 25° C.): 5.2%
Concentration in which growth was not observed ([1]; 30° C.): 4.9%
Concentration in which growth was observed ([1]; 30° C.): 4.7%
Concentration in which growth was not observed ([1]; 37° C.): 4.5%
Concentration in which growth was observed ([1]; 37° C.): 4.3%
Growth of L. plantarum PN0512 in the presence of 2-butanol ([1]; […] w/v, 30° C.): +

CC(CN)OP(=O)(O)O (racemic) [Aminopropanol O-phosphate, DL-1-amino-2-propanol O-phosphate]
OD670, 10 min [2, 3]: 1.229
OD670, 30 min [2, 3]: 2.264
OD670, 10 min [2, 4]: 0.855
OD670, 30 min [2, 4]: 1.454
